Legend:
Assay type in all cases: cell-based
[1] = test system: ENL-dependent MV4; 11 cells; assay: Cell viability (CellTiter-Glo), MV4; 11 cells; conditions: 11 cells, 1.25, 2.5, 5 and 10 μM for 72 h
Procedure: MV4; 11 (FIG. 13A), MOLM13 (FIG. 13B) and Jurkat (FIG. 13C) cells were seeded at 2×10^5 cells/mL density and treated with DMSO or indicated compounds 0.5, 1, 2 and 4 μM for 72 h. Cell viability was measured using CellTiter-Glo reagent (Promega) and relative cell viability was calculated by normalization to DMSO samples.
ENL-dependent MV4; 11 cells were seeded at 2×10^5 cells/mL density and treated with DMSO or the indicated compounds at 0, 1.25, 2.5, 5 and 10 μM for 72 h. Cell viability was measured using CellTiter-Glo reagent (Promega) and relative cell viability was calculated by normalization to DMSO samples.
ENL-dependent MV4; 11 and ENL-independent Jurkat cells were seeded at 2×10^5 cells/mL density and treated with DMSO or indicated compounds at 10 nM, 100 nM, 1 μM and 10 μM for 3 days (A) or 6 days (B). Cell viability was measured using CellTiter-Glo reagent (Promega) and relative cell viability was calculated by normalization to DMSO samples.
MV4; 11 or MOLM13 cells were seeded at 0.2×10^6 cells/mL density. Cells were treated with DMSO or ENL degraders at indicated concentrations. Each treatment was done in triplicates. After 72 h treatment, 100 μL of cell suspension from each treatment was mixed with 25 μL of CellTiter-Glo reagent (Promega) and incubated for 10 min before the luminescence signals were detected on a plate reader.

ENL [2] = target: T1, ENL (Homo sapiens, UniProt Q03111); assay: Western blot of ENL protein levels in Jurkat cells; conditions: for ENL protein level after long treatment: 1 μM for 48 and 72 h
T1 construct: Cells were lysed and expression of endogenous ENL was assessed by Western blot analysis; host or cells: MV4;11
T1 sequence (Q03111 1-559): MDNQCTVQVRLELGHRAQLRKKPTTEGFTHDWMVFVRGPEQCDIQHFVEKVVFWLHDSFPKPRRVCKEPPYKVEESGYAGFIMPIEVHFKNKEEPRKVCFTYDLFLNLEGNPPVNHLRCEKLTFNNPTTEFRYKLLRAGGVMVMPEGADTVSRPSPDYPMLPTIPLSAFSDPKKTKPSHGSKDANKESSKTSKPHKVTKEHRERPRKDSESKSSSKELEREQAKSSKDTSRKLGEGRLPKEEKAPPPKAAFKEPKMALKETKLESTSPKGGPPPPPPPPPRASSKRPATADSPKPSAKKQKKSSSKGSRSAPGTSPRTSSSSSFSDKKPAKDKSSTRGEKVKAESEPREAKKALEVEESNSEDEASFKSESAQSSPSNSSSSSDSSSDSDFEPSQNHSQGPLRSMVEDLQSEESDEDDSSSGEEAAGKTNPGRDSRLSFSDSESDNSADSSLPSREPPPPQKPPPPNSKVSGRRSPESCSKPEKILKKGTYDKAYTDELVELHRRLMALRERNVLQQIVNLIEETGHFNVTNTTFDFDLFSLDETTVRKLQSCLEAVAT
Source text: […] DMSO was used as negative control.
(§1) After ENL degrader treatment, cells were collected, lysed, and total cell lysates were used for Western blot. The following primary antibodies were used: ENL (Cell Signaling Technology), GAS41 (Santa Cruz), GAPDH (Santa Cruz), β-actin (Sigma). Blots were detected using HRP-conjugated secondary antibodies.

ENL [3] = target: T1, ENL; assay: Western blot of ENL protein levels in MOLM13 cells; conditions: for ENL protein level after long treatment: 1 μM for 48 and 72 h
Procedure: MOLM13 cells were treated with LQ076-122 or LQ081-108 at 0, 0.25, 0.5, 1, 1.5, 2, 2.5, 3, 4 and 8 μM for 24 h.
MOLM13 cells were treated with DMSO or 8 μM of LQ076-122 for 12, 16, 20, 24 and 36 h.
MV4; 11, MOLM13 and Jurkat cells were treated with LQ108-69, LQ108-71, LQ108-72, LQ126-62 and LQ126-63 at 0, 1 nM, 10 nM, 100 nM, 1 μM, and 10 μM doses for 6 h. DMSO was used as negative control.
(§2) ENL degraders were dissolved in DMSO. DMSO with no degraders was used as the control. 1×10^6 leukemia cells were seeded in 5 mL medium. For prescreening of compounds, each test compound was added to the medium at 1 μM and 10 μM. Cells were collected after 24 h treatment. For the concentration-dependent treatment, candidate compounds were added to the medium at a series of concentration as indicated in figures. Cells were collected after 24 h treatment. For the time-course treatment, candidate compounds were added to the medium at a final concentration of 4 μM (MV4; 11 cells) or 8 μM (MOLM13 cells). Cells were collected at the indicated timepoints (in hours: 12, 16, 20, 24 and 36 h).
as §1

ENL [4] = target: T1, ENL; assay: Western blot of ENL protein levels in MV4; 11 cells; conditions: 11 cells; for effect of proteasome inhibitor MG132 on the ENL degradation induced by the degrader: 1 μM degrader with or without 1 μM MG132 for 6 h; for ENL protein level after long treatment: 1 μM for 48 and 72 h
Procedure: MV4; 11 cells were treated with DMSO or the indicated compounds (the same panel of ENL degraders as shown in FIG. 4) at 1 μM and 10 μM for 24 h. Cells were lysed and expression of ENL was assessed by Western blot analysis.
DMSO treated cells were used as control.
MV4; 11 cells were treated with LQ076-122, or LQ081-107 at 0.3, 1, 3, 10, and 30 μM for 24 h. DMSO treated cells were used as control. Cells were lysed and expression of ENL and GAS41 was assessed by Western analysis.
MV4; 11 cells were treated with DMSO or the indicated compounds at 1 μM and 10 μM for 6 h. Cells were lysed and expression of endogenous ENL was assessed by Western blot analysis.
Cells were treated with 1 μM of ENL degrader with or without 1 μM proteasome inhibitor MG132 for 6 h.
as §2, §1

Cc1ncsc1-c1ccc([C@H](CC(=O)NCCCCCCCNC(=O)c2ccc3c(c2)[C@H](NC(=O)c2cc(-c4ccc(C(=O)N(C)C)c(O)c4)on2)CC3)NC(=O)[C@@H]2C[C@@H](O)CN2C(=O)[C@@H](NC(=O)C2(F)CC2)C(C)(C)C)cc1 [LQ108-70, 5-(4-(dimethylcarbamoyl)-3-hydroxyphenyl)-N—((R)-6-((7-((S)-3-((2S,4R)-1-((S)-2-(1-fluorocyclopropane-1-carboxamido)-3,3-dimethylbutanoyl)-4-hydroxypyrrolidine-2-carboxamido)-3-(4-(4-methylthiazol-5-yl)phenyl)propanamido)heptyl)carbamoyl)-2,3-dihydro-1H-inden-1-yl)isoxazole-3-carboxamide]
suppression of cell growth (relative cell viability) [1]: significantly suppressed MV4; 11 cell growth at low micromolar concentration
ENL protein level after long treatment (ENL [2]): maintained the ENL protein at low levels
ENL protein level after long treatment (ENL [3]): maintained the ENL protein at low levels
effect of proteasome inhibitor MG132 on the ENL degradation induced by the degrader (ENL [4]): partially blocks the ENL degradation
ENL protein level after long treatment (ENL [4]): maintained the ENL protein at low levels

Cc1ncsc1-c1ccc(CNC(=O)[C@@H]2C[C@@H](O)CN2C(=O)[C@@H](NC(=O)CCCCCCCCNC(=O)c2ccc(C(=O)Nc3ccc4[nH]c(CN5CCC[C@@H]5C)nc4c3)cc2)C(C)(C)C)cc1 [LQ076-120, N^1-(9-(((S)-1-((2S,4R)-4-hydroxy-2-((4-(4-methylthiazol-5-y)benzyl)carbamoyl)pyrrolidin-1-yl)-3,3-dimethyl-1-oxobutan-2-yl)amino)-9-oxononyl)-N^4-(2-(((S)-2-methylpyrrolidin-1-yl)methyl)-1H-benzo[d]imidazol-5-yl)terephthalamide]
reduction of ENL protein levels (ENL [4]; 10 μM, 24 h): effective in reducing ENL protein levels

Cc1ncsc1-c1ccc(CNC(=O)[C@@H]2C[C@@H](O)CN2C(=O)[C@@H](NC(=O)CCCCCCCCCNC(=O)c2ccc3c(c2)[C@H](NC(=O)c2cc(-c4ccc(C(=O)N(C)C)c(O)c4)on2)CC3)C(C)(C)C)cc1 [LQ126-62, 5-(4-(dimethylcarbamoyl)-3-hydroxyphenyl)-N—((R)-6-((10-(((S)-1-((2S,4R)-4-hydroxy-2-((4-(4-methylthiazol-5-yl)benzyl)carbamoyl)pyrrolidin-1-yl)-3,3-dimethyl-1-oxobutan-2-yl)amino)-10-oxodecyl)carbamoyl)-2,3-dihydro-1H-inden-1-yl)isoxazole-3-carboxamide]
suppression of cell growth (relative cell viability) [1]: significantly suppressed MV4; 11 cell growth at low micromolar concentration
reduction of ENL protein levels (ENL [2]; 1 nM to 10 μM for 6 h): reduced ENL protein levels in a concentration-dependent manner
ENL protein level after long treatment (ENL [2]): maintained the ENL protein at low levels
reduction of ENL protein levels (ENL [3]; 1 nM to 10 μM for 6 h): reduced ENL protein levels in a concentration-dependent manner
ENL protein level after long treatment (ENL [3]): maintained the ENL protein at low levels
reduction of ENL protein levels (ENL [4]; 1 nM to 10 μM for 6 h): reduced ENL protein levels in a concentration-dependent manner
effect of proteasome inhibitor MG132 on the ENL degradation induced by the degrader (ENL [4]): partially blocks the ENL degradation
ENL protein level after long treatment (ENL [4]): maintained the ENL protein at low levels

Cn1ncc2cc(C(=O)Nc3ccc4[nH]c(CN5CCC(CCNC(=O)CCCCCCNc6cccc7c6C(=O)N(C6CCC(=O)NC6=O)C7=O)C5)nc4c3)ccc21 (stereo not shown) [LQ076-98, N-(2-((3-(2-(7-((2-(2,6-dioxopiperidin-3-yl)-1,3-dioxoisoindolin-4-yl)amino)heptanamido)ethyl)pyrrolidin-1-yl)methyl)-1H-benzo[d]imidazol-5-yl)-1-methyl-1H-indazole-5-carboxamide]
reduction of ENL protein levels (ENL [4]; 10 μM, 24 h): effective in reducing ENL protein levels

C[C@H]1CCCN1Cc1nc2cc(NC(=O)c3ccc(C(=O)NCCCCCCCCNc4cccc5c4C(=O)N(C4CCC(=O)NC4=O)C5=O)cc3)ccc2[nH]1 (stereo partly drawn) [LQ076-134, N^1-(8-((2-(2,6-dioxopiperidin-3-yl)-1,3-dioxoisoindolin-4-yl)amino)octyl)-N^4-(2-(((S)-2-methylpyrrolidin-1-yl)methyl)-1H-benzo[d]imidazol-5-yl)terephthalamide]
reduction of ENL protein levels (ENL [4]; 10 μM, 24 h): effective in reducing ENL protein levels

Cc1ncsc1-c1ccc(CNC(=O)[C@@H]2C[C@@H](O)CN2C(=O)[C@@H](NC(=O)CCCCCCCCCNC(=O)c2ccc(C(=O)Nc3ccc4[nH]c(CN5CCC[C@@H]5C)nc4c3)cc2)C(C)(C)C)cc1 [LQ076-121, N^1-(10-(((S)-1-((2S,4R)-4-hydroxy-2-((4-(4-methylthiazol-5-yl)benzyl)carbamoyl)pyrrolidin-1-yl)-3,3-dimethyl-1-oxobutan-2-yl)amino)-10-oxodecyl)-N^4-(2-(((S)-2-methylpyrrolidin-1-yl)methyl)-1H-benzo[d]imidazol-5-yl)terephthalamide]
reduction of ENL protein levels (ENL [4]; 10 μM, 24 h): effective in reducing ENL protein levels

Cc1ncsc1-c1ccc(CNC(=O)[C@@H]2C[C@@H](O)CN2C(=O)[C@@H](NC(=O)C2(F)CC2)C(C)(C)C)c(OCC(=O)NCCCCCCCNC(=O)c2ccc3c(c2)[C@H](NC(=O)c2cc(-c4ccc(C(=O)N(C)C)c(O)c4)on2)CC3)c1 [LQ108-63, 5-(4-(dimethylcarbamoyl)-3-hydroxyphenyl)-N-((R)-6-((7-(2-(2-(((2S,4R)-1-((S)-2-(1-fluorocyclopropane-1-carboxamido)-3,3-dimethylbutanoyl)-4-hydroxypyrrolidine-2-carboxamido)methyl)-5-(4-methylthiazol-5-yl)phenoxy)acetamido)heptyl)carbamoyl)-2,3-dihydro-1H-inden-1-yl)isoxazole-3-carboxamide]
effect of proteasome inhibitor MG132 on the ENL degradation induced by the degrader (ENL [4]): partially blocks the ENL degradation

Cn1ncc2cc(C(=O)Nc3ccc4[nH]c(CN5CCC(CCNC(=O)CCCCCCCNc6cccc7c6C(=O)N(C6CCC(=O)NC6=O)C7=O)C5)nc4c3)ccc21 (stereo not shown) [LQ076-99, N-(2-((3-(2-(8-((2-(2,6-dioxopiperidin-3-yl)-1,3-dioxoisoindolin-4-yl)amino)octanamido)ethyl)pyrrolidin-1-yl)methyl)-1H-benzo[d]imidazol-5-yl)-1-methyl-1H-indazole-5-carboxamide]
reduction of ENL protein levels (ENL [4]; 10 μM, 24 h): effective in reducing ENL protein levels
